Among the data in paper PMC8161026, “Synthesis and Anticancer Activity Evaluation of 5-[2-Chloro-3-(4-nitrophenyl)-2-propenylidene]-4-thiazolidinones” (Molecules, 2021) are GI50, CC50 and TGI values, retold here.

The term GI50 denotes the concentration at which growth is held to half of that of the control. A word on the TGI: it is the concentration at which net growth stops. A low value points to greater sensitivity of the cells.

In assay [1] the test system is breast cancer lines MCF-7 and MDA-MB-231. In words: MTT cell viability assay, both breast cancer lines. The format is cell-based. The following applies: Homo sapiens; MCF-7 and MDA-MB-231, MTT; read-out: GI50 level. As for the experimental part:
In the second stage of the research, Ciminalum-thiazolidinone hybrids were investigated for antitumor activity on the lines of gastric cancer (AGS), human colon cancer (DLD-1), and breast cancers (MCF-7 and MDA-MB-231). The study was performed in the MTT assay according to the method described previously. The studied cancer line was sensitive to the action of the studied compounds that inhibited its growth in micromolar ranges of GI50. The hit compounds that inhibited the growth of all four cancer lines with the lowest GI50 values were [5-[2-chloro-3-(4-nitrophenyl)prop-2-enylidene]-rhodanines 2c, 2d, 2h, and 2i (Table 4).
Background: Formazan colour is commonly taken as a measure of viable cells.

The next assay has as its system MDA-MB-468. As to the kind of experiment: NCI DTP 60 cell line screen, SRB.

As to `O=C(O)CCN1C(=O)/C(=C/C(Cl)=C/c2ccc([N+](=O)[O-])cc2)SC1=S` [Compound 2h, 3-{5-[(Z,2Z)-2-Chloro-3-(4-nitrophenyl)-2-propenylidene]-4-oxo-2-thioxothiazolidin-3-yl}propanoic acid], the GI50 in assay [1] is 950 to 1740 nM.
The molecule `O=C(O)C(Cc1ccccc1)N1C(=O)/C(=C/C(Cl)=C/c2ccc([N+](=O)[O-])cc2)SC1=S` (stereo not shown) [Compound 2j, 2-{5-[(Z,2Z)-2-Chloro-3-(4-nitrophenyl)-2-propenylidene]-4-oxo-2-thioxothiazolidin-3-yl}-3-phenylpropanoic acid] yielded a GI50 with MDA-MB-468 (Homo sapiens, MDA-MB-468, 48 h) of 1390 nM. For the same molecule, the CC50 with MDA-MB-468 (Homo sapiens, MDA-MB-468, 48 h, read-out: LC50) is 7710 nM. The molecule further gave a TGI with MDA-MB-468 (MDA-MB-468 (Breast Cancer), 48 h, SRB) of 3280 nM.
